From PubChem BioAssay (NCI)
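Five compound concentrations were applied to cells in 96-well plates for 48 hours; endpoints were derived by simple linear interpolation of the resulting dose-response curve. GI50: concentration for 50% inhibition of growth. TGI is the concentration that stops growth completely.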

What was measured:
Test in all cases: NCI-60 cell line screen, 48 h
SR leukemia = test system: SR leukemia
SNB-75 CNS = test system: SNB-75 CNS
CAKI-1 renal = test system: CAKI-1 renal
RXF 393 renal = test system: RXF 393 renal
KM12 colon = test system: KM12 colon
OVCAR-3 ovarian = test system: OVCAR-3 ovarian
ACHN renal = test system: ACHN renal
MDA-MB-435 = test system: MDA-MB-435
HCC-2998 colon = test system: HCC-2998 colon
OVCAR-4 ovarian = test system: OVCAR-4 ovarian
MALME-3M melanoma = test system: MALME-3M melanoma
786-0 renal = test system: 786-0 renal
LOX IMVI melanoma = test system: LOX IMVI melanoma
SK-MEL-28 melanoma = test system: SK-MEL-28 melanoma
U251 CNS = test system: U251 CNS
UACC-257 melanoma = test system: UACC-257 melanoma
MCF7 breast = test system: MCF7 breast
COLO 205 colon = test system: COLO 205 colon
NCI-H23 lung = test system: NCI-H23 lung
SF-295 CNS = test system: SF-295 CNS
UACC-62 melanoma = test system: UACC-62 melanoma
SK-MEL-2 melanoma = test system: SK-MEL-2 melanoma
HOP-62 NSCLC = test system: HOP-62 NSCLC
SK-MEL-5 melanoma = test system: SK-MEL-5 melanoma
HCT-116 colon = test system: HCT-116 colon
IGROV1 ovarian = test system: IGROV1 ovarian
SW-620 colon = test system: SW-620 colon
SF-539 CNS = test system: SF-539 CNS
BT-549 breast = test system: BT-549 breast
NCI-H460 lung = test system: NCI-H460 lung
HL-60(TB) leukemia = test system: HL-60(TB) leukemia
SN12C renal = test system: SN12C renal
OVCAR-5 ovarian = test system: OVCAR-5 ovarian
NCI/ADR-RES ovarian = test system: NCI/ADR-RES ovarian
SK-OV-3 ovarian = test system: SK-OV-3 ovarian
T-47D breast = test system: T-47D breast
RPMI-8226 leukemia = test system: RPMI-8226 leukemia
HS 578T breast = test system: HS 578T breast
CCRF-CEM leukemia = test system: CCRF-CEM leukemia
A549 NSCLC = test system: A549 NSCLC
TK-10 renal = test system: TK-10 renal
SF-268 CNS = test system: SF-268 CNS
HOP-92 NSCLC = test system: HOP-92 NSCLC
PC-3 prostate = test system: PC-3 prostate
HT29 colon = test system: HT29 colon
HCT-15 colon = test system: HCT-15 colon
MOLT-4 leukemia = test system: MOLT-4 leukemia
SNB-19 CNS = test system: SNB-19 CNS
K-562 leukemia = test system: K-562 leukemia
MDA-MB-231 breast = test system: MDA-MB-231 breast
M14 melanoma = test system: M14 melanoma
MDA-N = test system: MDA-N
UO-31 renal = test system: UO-31 renal
DU-145 prostate = test system: DU-145 prostate
A498 renal = test system: A498 renal
EKVX NSCLC = test system: EKVX NSCLC
OVCAR-8 ovarian = test system: OVCAR-8 ovarian
NCI-H522 lung = test system: NCI-H522 lung

CCOC(=O)c1c(-c2ccc(OC)cc2)c(C#N)c(=S)n(C2OC(CO)C(O)C(O)C2O)c1-c1ccccc1 (centres undefined)
TGI (SR leukemia): > 100 µM | TGI (SNB-75 CNS): > 100 µM | TGI (CAKI-1 renal): > 100 µM | TGI (RXF 393 renal): 75.7 µM | TGI (KM12 colon): > 100 µM | TGI (OVCAR-3 ovarian): 73 µM | TGI (ACHN renal): > 100 µM | TGI (MDA-MB-435): 95.9 µM | TGI (HCC-2998 colon): > 100 µM | TGI (OVCAR-4 ovarian): > 100 µM | TGI (MALME-3M melanoma): > 100 µM | TGI (786-0 renal): > 100 µM | TGI (LOX IMVI melanoma): > 100 µM | TGI (SK-MEL-28 melanoma): > 100 µM | TGI (U251 CNS): > 100 µM | TGI (UACC-257 melanoma): > 100 µM | TGI (MCF7 breast): > 100 µM | TGI (COLO 205 colon): > 100 µM | TGI (NCI-H23 lung): > 100 µM | TGI (SF-295 CNS): > 100 µM | TGI (UACC-62 melanoma): > 100 µM | TGI (SK-MEL-2 melanoma): > 100 µM | TGI (HOP-62 NSCLC): 80.7 µM | TGI (SK-MEL-5 melanoma): 26.5 µM | TGI (HCT-116 colon): 85.3 µM | TGI (IGROV1 ovarian): > 100 µM | TGI (SW-620 colon): > 100 µM | TGI (SF-539 CNS): > 100 µM | TGI (BT-549 breast): > 100 µM | TGI (NCI-H460 lung): > 100 µM | TGI (HL-60(TB) leukemia): > 100 µM | TGI (SN12C renal): > 100 µM | TGI (OVCAR-5 ovarian): > 100 µM | TGI (NCI/ADR-RES ovarian): > 100 µM | TGI (SK-OV-3 ovarian): > 100 µM | TGI (T-47D breast): > 100 µM | TGI (RPMI-8226 leukemia): > 100 µM | TGI (HS 578T breast): 70 µM | TGI (CCRF-CEM leukemia): > 100 µM | TGI (A549 NSCLC): > 100 µM | TGI (TK-10 renal): > 100 µM | TGI (SF-268 CNS): > 100 µM | TGI (HOP-92 NSCLC): 32.8 µM | TGI (PC-3 prostate): > 100 µM | TGI (HT29 colon): > 100 µM | TGI (HCT-15 colon): > 100 µM | TGI (MOLT-4 leukemia): 96.5 µM | TGI (SNB-19 CNS): > 100 µM | TGI (K-562 leukemia): > 100 µM | TGI (MDA-MB-231 breast): > 100 µM | TGI (M14 melanoma): > 100 µM | TGI (MDA-N): > 100 µM | TGI (UO-31 renal): > 100 µM | TGI (DU-145 prostate): > 100 µM

CC(=O)Oc1cc2c(cc1OC(C)=O)[C@H]1CC[C@]3(C)[C@@H](OC(C)=O)CC[C@H]3[C@@H]1CC2
TGI (SR leukemia): 5.77 µM | TGI (SNB-75 CNS): 4.42 µM | TGI (A498 renal): 25.6 µM | TGI (CAKI-1 renal): 12.5 µM | TGI (RXF 393 renal): 16.5 µM | TGI (KM12 colon): 23.4 µM | TGI (EKVX NSCLC): 9.64 µM | TGI (OVCAR-3 ovarian): 7.88 µM | TGI (ACHN renal): 16.5 µM | GI50 (MDA-MB-435): 0.316 µM | TGI (MDA-MB-435): 9.65 µM | TGI (HCC-2998 colon): 21.1 µM | TGI (OVCAR-8 ovarian): 28 µM | TGI (OVCAR-4 ovarian): 19.7 µM | TGI (786-0 renal): 18.9 µM | TGI (LOX IMVI melanoma): 16.6 µM | TGI (SK-MEL-28 melanoma): 19.7 µM | TGI (U251 CNS): 17.6 µM | TGI (UACC-257 melanoma): 22.4 µM | TGI (MCF7 breast): 20.9 µM | TGI (COLO 205 colon): 15.5 µM | TGI (NCI-H23 lung): 22.9 µM | TGI (SF-295 CNS): 24.3 µM | GI50 (UACC-62 melanoma): 2.48 µM | TGI (UACC-62 melanoma): 13.1 µM | TGI (SK-MEL-2 melanoma): 16.1 µM | GI50 (HOP-62 NSCLC): 4.81 µM | TGI (HOP-62 NSCLC): 26.7 µM | TGI (SK-MEL-5 melanoma): 20.4 µM | GI50 (HCT-116 colon): 5.08 µM | TGI (HCT-116 colon): 18.5 µM | TGI (IGROV1 ovarian): 19.1 µM | TGI (NCI-H522 lung): 3.85 µM | TGI (SW-620 colon): 15.4 µM | GI50 (SF-539 CNS): 3.53 µM | TGI (SF-539 CNS): 15.9 µM | TGI (BT-549 breast): 11.2 µM | TGI (NCI-H460 lung): 20.6 µM | GI50 (SN12C renal): 5.06 µM | TGI (SN12C renal): 20.4 µM | TGI (OVCAR-5 ovarian): 24.2 µM | TGI (NCI/ADR-RES ovarian): 29.5 µM | TGI (SK-OV-3 ovarian): 21.7 µM | TGI (T-47D breast): 22.2 µM | TGI (RPMI-8226 leukemia): 8.43 µM | TGI (HS 578T breast): 25.2 µM | TGI (A549 NSCLC): 24.2 µM | TGI (TK-10 renal): 20.8 µM | TGI (SF-268 CNS): 22.5 µM | TGI (HOP-92 NSCLC): 5.3 µM | TGI (PC-3 prostate): 25.5 µM | TGI (HT29 colon): 19.3 µM | TGI (HCT-15 colon): 15.4 µM | TGI (SNB-19 CNS): 21.7 µM | TGI (K-562 leukemia): 16.8 µM | TGI (MDA-MB-231 breast): 26.3 µM | TGI (M14 melanoma): 21.1 µM | TGI (MDA-N): 16.5 µM | TGI (UO-31 renal): 13 µM | TGI (DU-145 prostate): 38.9 µM
